Data reported in ChEMBL document CHEMBL1201862, “PubChem BioAssay data set” (2004).
Active and inactive are the calls of the source.

Assays:
[1] = molecular target: Beta-adrenergic receptor kinase 1 (Homo sapiens, UniProt P25098); experiment: GRK2 inhibitors displacing RNA aptamer, dose response, biochemical, flow cytometry beads, FAM-aptamer, powder set 1 (AID 588720)
[2] = molecular target: T1, Carboxy-terminal domain RNA polymerase II polypeptide A small phosphatase 1 (Homo sapiens, UniProt Q9GZU7); experiment: inhibitors of CTDSP1, concentration-response testing, biochemical assay, absorbance-based, actives from ultra-high-throughput screening (AID 540297); format: functional
T1 sequence (Q9GZU7 whole entry): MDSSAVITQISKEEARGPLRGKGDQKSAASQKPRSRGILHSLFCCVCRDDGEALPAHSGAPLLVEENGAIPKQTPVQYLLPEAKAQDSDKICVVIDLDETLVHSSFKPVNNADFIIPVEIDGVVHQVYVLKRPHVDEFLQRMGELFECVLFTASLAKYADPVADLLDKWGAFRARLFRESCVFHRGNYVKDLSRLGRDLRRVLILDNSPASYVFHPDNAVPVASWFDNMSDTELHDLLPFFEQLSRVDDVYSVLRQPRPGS

Escherichia coli = experiment: microbe, parasite or virus in culture
[3] = molecular target: Voltage-gated inwardly rectifying potassium channel KCNH2 (Homo sapiens, UniProt Q12809); settings: Potency;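 also: confirmatory quantitative high-throughput screen measuring inhibition of hERG channel activity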
Sequence of Voltage-gated inwardly rectifying potassium channel KCNH2 (Q12809 whole entry): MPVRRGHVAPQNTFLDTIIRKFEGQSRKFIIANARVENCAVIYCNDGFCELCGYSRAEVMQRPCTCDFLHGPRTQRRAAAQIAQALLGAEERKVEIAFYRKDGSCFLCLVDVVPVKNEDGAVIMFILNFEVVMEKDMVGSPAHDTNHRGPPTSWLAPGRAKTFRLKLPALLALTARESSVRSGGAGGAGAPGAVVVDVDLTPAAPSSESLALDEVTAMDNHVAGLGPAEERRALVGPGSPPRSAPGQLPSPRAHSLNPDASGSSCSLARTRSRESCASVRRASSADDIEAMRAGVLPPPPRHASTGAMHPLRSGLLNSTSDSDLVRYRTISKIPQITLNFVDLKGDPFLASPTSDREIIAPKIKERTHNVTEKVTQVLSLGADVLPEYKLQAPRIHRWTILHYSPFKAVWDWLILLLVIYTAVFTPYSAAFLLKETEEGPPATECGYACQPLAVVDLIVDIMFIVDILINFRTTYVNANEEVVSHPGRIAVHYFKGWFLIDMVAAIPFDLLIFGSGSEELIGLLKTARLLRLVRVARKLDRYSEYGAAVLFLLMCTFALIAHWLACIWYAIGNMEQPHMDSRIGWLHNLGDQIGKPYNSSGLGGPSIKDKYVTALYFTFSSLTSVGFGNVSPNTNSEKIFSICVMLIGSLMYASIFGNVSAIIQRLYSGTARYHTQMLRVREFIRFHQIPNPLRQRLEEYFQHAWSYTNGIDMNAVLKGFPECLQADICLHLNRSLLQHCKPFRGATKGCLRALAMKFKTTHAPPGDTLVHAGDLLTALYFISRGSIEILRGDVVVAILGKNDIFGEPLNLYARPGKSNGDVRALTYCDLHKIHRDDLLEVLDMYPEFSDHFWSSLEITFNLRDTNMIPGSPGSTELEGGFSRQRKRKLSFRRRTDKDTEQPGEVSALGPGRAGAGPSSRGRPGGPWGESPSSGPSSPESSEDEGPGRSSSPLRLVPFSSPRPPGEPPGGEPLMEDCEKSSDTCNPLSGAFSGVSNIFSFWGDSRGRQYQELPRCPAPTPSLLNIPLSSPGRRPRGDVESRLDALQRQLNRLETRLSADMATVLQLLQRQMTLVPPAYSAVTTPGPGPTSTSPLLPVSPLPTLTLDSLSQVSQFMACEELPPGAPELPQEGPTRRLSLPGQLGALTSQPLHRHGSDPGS

[4] = molecular target: T2, Microphthalmia-associated transcription factor (Homo sapiens, UniProt O75030); experiment: TRPM1 promoter luciferase signal decrease, dose response, MITF inhibitor project, cell-based, SK-MEL-5, cherry-picked, set 3 (AID 493073); format: functional
T2 sequence (O75030 whole entry): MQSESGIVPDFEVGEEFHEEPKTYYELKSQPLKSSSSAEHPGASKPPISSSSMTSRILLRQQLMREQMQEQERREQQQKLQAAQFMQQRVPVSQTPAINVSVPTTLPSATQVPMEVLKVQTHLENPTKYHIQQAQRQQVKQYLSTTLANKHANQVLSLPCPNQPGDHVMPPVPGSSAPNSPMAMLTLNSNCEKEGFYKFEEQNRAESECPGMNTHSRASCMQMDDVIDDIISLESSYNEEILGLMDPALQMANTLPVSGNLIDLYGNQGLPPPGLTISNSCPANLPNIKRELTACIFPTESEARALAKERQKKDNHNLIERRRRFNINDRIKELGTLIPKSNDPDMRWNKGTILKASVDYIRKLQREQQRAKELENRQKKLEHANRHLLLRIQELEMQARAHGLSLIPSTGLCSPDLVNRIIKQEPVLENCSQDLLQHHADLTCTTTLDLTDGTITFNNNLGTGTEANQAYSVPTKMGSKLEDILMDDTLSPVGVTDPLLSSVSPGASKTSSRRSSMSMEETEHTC

[5] = Luminescent dose response cell-based high throughput screening assay for inhibitors of the Janus kinase 2 mutant JAK2V617F. [Related pubchem assays: 1446 (Primary screen.), 1521 (Confirmation assay.), 1486 (Counter screen.)]; format: functional
A-375 = experiment: MITF: Counter assay: A375 proliferation Measured in Cell-Based System Using Plate Reader - 2084-03_Inhibitor_Dose_DryPowder_Activity. [Related pubchem assays (depositor defined):AID488944]; format: functional; settings: Homo sapiens
Paired box protein Pax-8 = Paired box protein Pax-8 (Homo sapiens, UniProt Q06710); experiment: inhibitors of PAX8-driven TPO luciferase reporter, dose response, RMG-I cells, cherry-pick (AID 687027); format: functional, cell-based;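 also: luciferase reporter driven by Pax8 target thyroperoxidase promoter measured by SteadyGlo luminescence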
Sequence of Paired box protein Pax-8 (Q06710 whole entry): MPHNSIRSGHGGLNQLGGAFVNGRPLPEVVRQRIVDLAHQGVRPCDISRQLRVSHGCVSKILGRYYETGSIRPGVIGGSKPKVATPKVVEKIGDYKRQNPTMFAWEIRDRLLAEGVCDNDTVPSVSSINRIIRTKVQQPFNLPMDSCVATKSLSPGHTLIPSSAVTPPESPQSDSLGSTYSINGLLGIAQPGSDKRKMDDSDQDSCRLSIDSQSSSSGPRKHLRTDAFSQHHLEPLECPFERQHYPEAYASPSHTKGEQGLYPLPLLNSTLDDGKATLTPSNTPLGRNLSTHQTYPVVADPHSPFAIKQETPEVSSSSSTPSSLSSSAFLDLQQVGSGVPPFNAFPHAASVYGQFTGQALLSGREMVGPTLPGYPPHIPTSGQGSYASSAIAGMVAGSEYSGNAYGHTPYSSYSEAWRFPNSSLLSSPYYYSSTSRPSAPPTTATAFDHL

CAAX prenyl protease 2 = CAAX prenyl protease 2 (Homo sapiens, UniProt Q9Y256); experiment: human Rce1 protease inhibitors, dose response, biochemical, yeast membranes, quenched-peptide fluorescence, cherry-pick (AID 588849)
Sequence of CAAX prenyl protease 2 (Q9Y256 whole entry): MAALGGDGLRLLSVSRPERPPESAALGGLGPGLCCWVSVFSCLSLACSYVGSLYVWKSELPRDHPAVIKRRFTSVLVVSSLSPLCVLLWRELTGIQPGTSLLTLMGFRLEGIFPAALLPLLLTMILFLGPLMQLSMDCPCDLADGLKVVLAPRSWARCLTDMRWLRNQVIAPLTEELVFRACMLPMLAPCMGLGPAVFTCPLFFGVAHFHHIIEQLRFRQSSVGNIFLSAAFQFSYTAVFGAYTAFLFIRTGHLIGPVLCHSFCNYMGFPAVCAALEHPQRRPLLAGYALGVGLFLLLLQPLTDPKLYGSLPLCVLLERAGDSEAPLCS

Trypsin = Trypsin (Sus scrofa, UniProt P00761); experiment: porcine trypsin inhibitors, dose response, selectivity assay for Rce1 protease inhibitor project, biochemical, quenched peptide fluorescence, cherry-pick (AID 488789)
Sequence of Trypsin (P00761 whole entry): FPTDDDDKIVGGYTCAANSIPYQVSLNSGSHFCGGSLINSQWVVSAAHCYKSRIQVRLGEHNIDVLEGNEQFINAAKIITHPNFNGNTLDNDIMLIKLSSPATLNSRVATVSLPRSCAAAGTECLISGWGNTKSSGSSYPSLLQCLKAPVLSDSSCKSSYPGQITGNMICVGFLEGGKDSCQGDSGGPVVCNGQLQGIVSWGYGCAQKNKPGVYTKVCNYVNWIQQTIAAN

Jurkat = experiment: antigen receptor-induced NF-kB inhibitors, dose response, Jurkat, luciferase reporter, luminescence, B- and T-cell (AID 489004); format: functional, cell-based; settings: Homo sapiens;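 also: NF-kB luciferase reporter Jurkat cells stimulated with PMA plus ionomycin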
[6] = cytotoxicity in HEK-293T NF-kB-Luc cells, dose response, cytotoxicity control for B/T-cell NF-kB inhibitor project, cell-based, uHTS hits (AID 489019); format: functional;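 also: IC50 reflects cytotoxicity as loss of cell viability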
[7] = MC4R antagonists, dose response, counter-screen for LGR2 antagonist project, cell-based, plate reader, cherry pick (AID 743444); format: functional;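 also: transfected HEK 293 cells stimulated with alpha-MSH peptide; potency of inhibitors of the alpha-MSH evoked signal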
[8] = molecular target: Luciferin 4-monooxygenase (Photuris pensylvanica, UniProt Q27757); experiment: firefly luciferase enzyme inhibitors, dose response, counter-screen for HSF-1 reporter inhibitor project, biochemical, Cell Titer Glo, luminescence, cherry-picks (AID 588847)
Sequence of Luciferin 4-monooxygenase (Q27757 whole entry): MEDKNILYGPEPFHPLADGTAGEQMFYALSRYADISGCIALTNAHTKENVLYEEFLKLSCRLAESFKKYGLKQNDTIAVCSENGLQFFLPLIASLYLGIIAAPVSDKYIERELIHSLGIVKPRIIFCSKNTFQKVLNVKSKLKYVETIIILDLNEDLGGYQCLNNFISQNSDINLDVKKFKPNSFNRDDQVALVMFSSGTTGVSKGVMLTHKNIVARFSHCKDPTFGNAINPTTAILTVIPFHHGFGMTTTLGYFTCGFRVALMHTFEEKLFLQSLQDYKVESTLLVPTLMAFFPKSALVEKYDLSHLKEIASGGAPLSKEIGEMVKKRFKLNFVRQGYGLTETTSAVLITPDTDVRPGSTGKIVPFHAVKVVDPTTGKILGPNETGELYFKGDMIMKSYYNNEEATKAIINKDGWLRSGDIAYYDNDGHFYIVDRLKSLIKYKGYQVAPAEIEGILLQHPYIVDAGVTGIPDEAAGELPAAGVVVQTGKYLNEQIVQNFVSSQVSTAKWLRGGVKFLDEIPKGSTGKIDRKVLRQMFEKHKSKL

[9] = LGR2 antagonists, dose response, cell-based, HEK293, CRE-luciferase reporter, cherry pick, set 2 (AID 743343); format: functional;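 also: transfected cells were stimulated with diluted bursicon conditioned medium after compound addition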
[10] = molecular target: T3, Rac GTPase-activating protein 1 (Homo sapiens, UniProt Q9H0H5); experiment: MgcRacGAP GTPase-activating activity inhibitors, confirmation, biochemical, ADP Hunter fluorescence, primary and confirmatory (AID 624330); format: functional
T3 sequence (Q9H0H5 whole entry): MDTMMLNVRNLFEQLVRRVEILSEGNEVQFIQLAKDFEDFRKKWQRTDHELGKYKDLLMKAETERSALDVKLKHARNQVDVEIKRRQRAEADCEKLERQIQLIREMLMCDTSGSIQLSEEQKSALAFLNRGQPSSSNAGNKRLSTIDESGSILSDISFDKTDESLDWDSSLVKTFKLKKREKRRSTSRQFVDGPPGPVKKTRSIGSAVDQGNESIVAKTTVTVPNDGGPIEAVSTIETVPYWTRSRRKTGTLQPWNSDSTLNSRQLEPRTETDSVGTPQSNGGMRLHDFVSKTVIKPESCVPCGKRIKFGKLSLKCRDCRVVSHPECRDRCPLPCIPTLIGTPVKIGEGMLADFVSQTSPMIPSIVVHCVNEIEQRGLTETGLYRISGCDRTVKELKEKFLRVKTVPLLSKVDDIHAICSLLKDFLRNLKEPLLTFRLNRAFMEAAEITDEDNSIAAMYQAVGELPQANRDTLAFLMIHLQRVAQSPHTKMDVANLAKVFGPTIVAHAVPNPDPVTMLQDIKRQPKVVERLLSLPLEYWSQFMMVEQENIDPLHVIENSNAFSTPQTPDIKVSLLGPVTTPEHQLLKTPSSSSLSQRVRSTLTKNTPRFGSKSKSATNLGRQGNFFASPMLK

Beta-arrestin-1 = Beta-arrestin-1 (Homo sapiens, UniProt P49407); experiment: inhibitors of arrestin peptide binding to AP2, dose response, biochemical, cherry pick 1, beta2-adaptin appendage, flow cytometry (AID 588783); format: functional
Sequence of Beta-arrestin-1 (P49407 whole entry): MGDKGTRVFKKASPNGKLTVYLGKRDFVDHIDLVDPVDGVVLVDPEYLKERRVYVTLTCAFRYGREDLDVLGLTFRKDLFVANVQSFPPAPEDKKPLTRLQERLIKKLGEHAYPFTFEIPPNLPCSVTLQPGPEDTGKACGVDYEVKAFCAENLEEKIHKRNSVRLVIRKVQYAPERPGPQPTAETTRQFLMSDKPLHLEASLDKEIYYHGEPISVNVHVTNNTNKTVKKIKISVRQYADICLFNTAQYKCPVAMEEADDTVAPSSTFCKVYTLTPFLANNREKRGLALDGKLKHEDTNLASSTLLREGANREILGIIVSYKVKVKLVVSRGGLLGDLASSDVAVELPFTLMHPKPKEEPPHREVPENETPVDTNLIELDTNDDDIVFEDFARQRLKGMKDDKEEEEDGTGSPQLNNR

[11] = molecular target: T4, Histone-lysine N-methyltransferase NSD2 (Homo sapiens, UniProt O96028); format: biochemical
T4 sequence (O96028 whole entry): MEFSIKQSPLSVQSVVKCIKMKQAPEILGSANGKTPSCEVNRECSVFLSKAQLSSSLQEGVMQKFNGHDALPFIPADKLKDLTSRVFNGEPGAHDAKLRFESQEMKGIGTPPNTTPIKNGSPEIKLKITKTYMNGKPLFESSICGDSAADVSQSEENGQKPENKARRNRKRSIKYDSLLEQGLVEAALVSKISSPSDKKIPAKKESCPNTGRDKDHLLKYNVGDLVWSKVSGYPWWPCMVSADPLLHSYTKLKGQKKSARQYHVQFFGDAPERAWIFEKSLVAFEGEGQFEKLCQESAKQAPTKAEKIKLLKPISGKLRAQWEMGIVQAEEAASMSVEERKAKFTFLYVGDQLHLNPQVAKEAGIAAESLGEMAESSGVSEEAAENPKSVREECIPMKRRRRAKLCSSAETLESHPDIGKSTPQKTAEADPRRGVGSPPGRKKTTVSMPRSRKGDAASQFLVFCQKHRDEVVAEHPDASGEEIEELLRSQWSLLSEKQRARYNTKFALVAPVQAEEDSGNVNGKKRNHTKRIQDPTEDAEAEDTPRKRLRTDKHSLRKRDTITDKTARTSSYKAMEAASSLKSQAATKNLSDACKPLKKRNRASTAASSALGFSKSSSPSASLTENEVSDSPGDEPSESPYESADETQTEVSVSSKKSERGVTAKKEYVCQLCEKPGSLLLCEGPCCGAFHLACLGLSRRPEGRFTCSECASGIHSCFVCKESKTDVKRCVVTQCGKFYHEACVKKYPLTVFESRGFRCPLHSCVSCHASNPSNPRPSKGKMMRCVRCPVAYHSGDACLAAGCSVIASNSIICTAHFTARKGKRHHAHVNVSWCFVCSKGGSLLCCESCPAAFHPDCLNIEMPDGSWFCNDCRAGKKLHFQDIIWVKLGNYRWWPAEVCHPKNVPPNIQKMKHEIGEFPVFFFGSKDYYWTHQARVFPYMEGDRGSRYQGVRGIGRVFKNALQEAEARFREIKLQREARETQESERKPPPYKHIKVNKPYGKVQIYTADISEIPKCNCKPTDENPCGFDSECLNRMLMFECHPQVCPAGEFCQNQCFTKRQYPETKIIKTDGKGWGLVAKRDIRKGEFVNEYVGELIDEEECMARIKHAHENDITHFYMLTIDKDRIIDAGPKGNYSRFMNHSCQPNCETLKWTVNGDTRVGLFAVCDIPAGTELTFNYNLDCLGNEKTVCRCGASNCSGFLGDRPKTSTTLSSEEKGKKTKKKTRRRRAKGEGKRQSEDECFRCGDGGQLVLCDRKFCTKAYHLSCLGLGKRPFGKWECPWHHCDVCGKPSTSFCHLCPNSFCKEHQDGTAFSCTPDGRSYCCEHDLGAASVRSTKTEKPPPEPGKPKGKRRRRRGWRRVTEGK

[12] = HeLa cell cytotoxicity, dose response, cytotoxicity control for MgcRacGAP inhibitor project (AID 624300); format: functional
Vero = Vero cell cytotoxicity, cytotoxicity control for flavivirus capping enzyme inhibitors (AID 588742); format: functional; settings: Chlorocebus sabaeus
Caspase-6 = molecular target: T5, Caspase-6 (Homo sapiens, UniProt P55212); experiment: human caspase-6 inhibitors, dose response, biochemical, VEID-R110 fluorescence, cherry-pick (AID 720632)
T5 sequence (P55212 whole entry): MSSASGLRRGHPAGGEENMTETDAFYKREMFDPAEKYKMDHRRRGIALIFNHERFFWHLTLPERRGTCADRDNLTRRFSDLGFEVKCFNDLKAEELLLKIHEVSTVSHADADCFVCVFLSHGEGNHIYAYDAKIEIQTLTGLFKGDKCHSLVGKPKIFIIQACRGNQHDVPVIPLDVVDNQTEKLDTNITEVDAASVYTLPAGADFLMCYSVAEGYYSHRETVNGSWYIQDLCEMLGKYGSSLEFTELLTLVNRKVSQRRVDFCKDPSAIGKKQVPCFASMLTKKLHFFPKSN

Genome polyprotein = Genome polyprotein (dengue virus type 2, UniProt P29990); experiment: Dengue-2 NS5 methyltransferase inhibitors, primary screen, biochemical, confirmation dose response (AID 588689); format: functional
Sequence of Genome polyprotein (P29990 2492-3391 limits assumed): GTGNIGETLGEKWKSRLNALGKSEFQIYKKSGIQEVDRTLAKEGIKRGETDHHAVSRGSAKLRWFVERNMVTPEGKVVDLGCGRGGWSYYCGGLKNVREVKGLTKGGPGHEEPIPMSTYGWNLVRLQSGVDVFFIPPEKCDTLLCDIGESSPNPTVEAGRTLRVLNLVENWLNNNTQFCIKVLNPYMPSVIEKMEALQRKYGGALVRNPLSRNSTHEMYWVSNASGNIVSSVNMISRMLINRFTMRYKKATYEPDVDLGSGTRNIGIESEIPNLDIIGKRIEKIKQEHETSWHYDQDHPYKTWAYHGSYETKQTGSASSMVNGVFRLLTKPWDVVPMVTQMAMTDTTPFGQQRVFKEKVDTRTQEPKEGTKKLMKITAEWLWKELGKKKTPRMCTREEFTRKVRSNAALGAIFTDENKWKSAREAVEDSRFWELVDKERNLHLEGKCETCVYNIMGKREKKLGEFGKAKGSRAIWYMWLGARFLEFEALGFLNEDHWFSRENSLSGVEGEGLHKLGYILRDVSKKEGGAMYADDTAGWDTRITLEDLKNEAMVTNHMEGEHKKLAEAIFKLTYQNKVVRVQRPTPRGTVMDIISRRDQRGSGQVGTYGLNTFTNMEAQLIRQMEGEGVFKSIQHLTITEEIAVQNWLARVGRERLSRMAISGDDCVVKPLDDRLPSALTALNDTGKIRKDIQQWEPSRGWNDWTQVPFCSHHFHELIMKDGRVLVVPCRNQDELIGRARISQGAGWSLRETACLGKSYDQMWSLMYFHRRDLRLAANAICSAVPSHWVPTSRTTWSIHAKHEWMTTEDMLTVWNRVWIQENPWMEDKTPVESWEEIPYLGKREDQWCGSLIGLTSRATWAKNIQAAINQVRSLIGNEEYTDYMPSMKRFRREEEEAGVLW

Protein skinhead-1 = molecular target: T6, Protein skinhead-1 (Caenorhabditis elegans, UniProt P34707); format: functional
T6 sequence (P34707 whole entry): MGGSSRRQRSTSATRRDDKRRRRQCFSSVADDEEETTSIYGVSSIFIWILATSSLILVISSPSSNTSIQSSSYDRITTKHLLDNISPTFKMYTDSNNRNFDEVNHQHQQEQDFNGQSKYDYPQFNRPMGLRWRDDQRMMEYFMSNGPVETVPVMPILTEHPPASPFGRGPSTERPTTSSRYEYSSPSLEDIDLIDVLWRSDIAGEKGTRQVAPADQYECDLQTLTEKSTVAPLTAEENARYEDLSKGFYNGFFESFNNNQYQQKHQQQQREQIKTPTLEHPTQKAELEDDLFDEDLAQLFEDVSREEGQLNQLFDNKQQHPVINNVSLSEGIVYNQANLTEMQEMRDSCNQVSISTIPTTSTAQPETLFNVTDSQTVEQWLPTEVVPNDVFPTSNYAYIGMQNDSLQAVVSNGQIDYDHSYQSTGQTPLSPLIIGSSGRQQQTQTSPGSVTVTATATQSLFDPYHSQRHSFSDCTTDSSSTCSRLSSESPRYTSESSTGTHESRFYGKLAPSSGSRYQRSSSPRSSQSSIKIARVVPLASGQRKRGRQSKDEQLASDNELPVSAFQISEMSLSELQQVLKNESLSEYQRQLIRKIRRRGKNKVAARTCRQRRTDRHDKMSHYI

[13] = molecular target: T7, Polyadenylate-binding protein 1 (Homo sapiens, UniProt P11940); experiment: PABP1 MLLE–PAM2 binding inhibitor potency, dose response, biochemical, fluorescence polarization, FITC-PAM2 peptide (AID 602259); format: functional; settings: read-out: IC50_Mean
T7 sequence (P11940 whole entry): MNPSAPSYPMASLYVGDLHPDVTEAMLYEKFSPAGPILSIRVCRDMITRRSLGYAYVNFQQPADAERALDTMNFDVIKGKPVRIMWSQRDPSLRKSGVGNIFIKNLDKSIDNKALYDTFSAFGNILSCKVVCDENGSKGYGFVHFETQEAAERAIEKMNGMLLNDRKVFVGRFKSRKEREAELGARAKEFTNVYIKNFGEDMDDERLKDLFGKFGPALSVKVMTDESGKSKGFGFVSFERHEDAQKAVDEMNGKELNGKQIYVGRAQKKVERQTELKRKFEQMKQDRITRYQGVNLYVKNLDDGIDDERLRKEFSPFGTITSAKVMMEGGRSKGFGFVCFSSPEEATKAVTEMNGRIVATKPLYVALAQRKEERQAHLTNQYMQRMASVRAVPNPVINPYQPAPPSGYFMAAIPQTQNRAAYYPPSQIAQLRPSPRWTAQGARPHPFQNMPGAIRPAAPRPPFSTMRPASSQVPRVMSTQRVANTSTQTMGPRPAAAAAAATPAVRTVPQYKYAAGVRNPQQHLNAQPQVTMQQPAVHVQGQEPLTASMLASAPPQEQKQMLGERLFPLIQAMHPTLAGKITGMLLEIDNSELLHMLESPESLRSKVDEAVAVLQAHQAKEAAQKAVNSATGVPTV

[14] = molecular target: T7, Polyadenylate-binding protein 1; experiment: PABP1 MLLE–PAM2 interaction inhibitors, dose response, miRNA deadenylation inhibitor project, biochemical, fluorescence polarization, Cy5-PAM2 peptide, secondary (AID 602260); format: functional; settings: read-out: IC50_Mean

O=C(CCS(=O)(=O)c1ccc(Br)cc1)Nc1ccc(Br)cc1F
EC50 [1]: 21.2 µM (active)
IC50 [2]: 22 µM (active)

COC(=O)c1ccc(Cl)cc1NC(=O)/C=C/c1ccc(C)o1
AC50 (Escherichia coli): 83 µM (active)

C=CCN1CC[C@]23c4c5ccc(O)c4O[C@@H]2/C(=N/N=C2\CC[C@@]4(O)C6Cc7ccc(O)c8c7[C@@]4(CCN6CC=C)[C@@H]2O8)CC[C@@]3(O)C1C5
AC50 [3]: 20 µM (inconclusive)

Cc1ccc2nc(C)cc(Nc3ccc([N+](=O)[O-])cc3)c2c1
AC50 [4]: 5.88 µM (active)
IC50 [5]: 1.29 µM (active)
AC50 (A-375): 24.7 µM (active)
AC50 (Paired box protein Pax-8): 5.33 µM (active)

CC(=O)NN1C(=O)c2ccccc2NC1c1ccoc1 (stereo unspecified)
AC50 (CAAX prenyl protease 2): > 100 µM (inactive)
AC50 (Trypsin): 32.4 µM (active)

Cn1nc(CC(=O)Nc2ccc3c(c2)CCC3)c2ccccc2c1=O
IC50 (Jurkat): > 80 µM (inactive)
IC50 [6]: > 80 µM (inactive)

CCS(=O)(=O)N1Cc2ccccc2CC1C(=O)Nc1nc2ccccc2s1 (stereo unspecified)
AC50 [7]: 4.56 µM (active)
AC50 [8]: 15.2 µM (active)
AC50 [9]: 4.13 µM (active)

O=C1C(Br)=C(N2CCN(CCOCCO)CC2)C(=O)c2c(O)ccc(O)c21
IC50 [10]: 34.8 µM (active)
IC50 (Beta-arrestin-1): 7.46 µM (active)
AC50 [11]: 7.21 µM (active)
CC50 [12]: 12.6 µM (active)
AC50 (Paired box protein Pax-8): 7.03 µM (active)
CC50 (Vero): 8.58 µM (active)
AC50 (Caspase-6): 0.343 µM (active)
IC50 (Genome polyprotein): 5.11 µM (active)
IC50 (Protein skinhead-1): 79.6 µM (inactive)
IC50 [13]: 38.7 µM (inactive)
IC50 [14]: > 66 µM (inactive)
